From publication PMC7284416, “The Product Specificities of Maize Terpene Synthases TPS4 and TPS10 Are Determined Both by Active Site Amino Acids and Residues Adjacent to the Active Site” (Plants, 2020)
Residue numbers refer to the chain shown, from its start.

T1: TPS4 (tps4-B73) (Zea mays, UniProt Q6JD73, I411F/R442K, form not given)
T1 construct: expressed in E. coli BL21(DE3) from pHIS8-3, N-terminal His8 tag kept, Ni-NTA purified; forward primer starts the ORF at codons for SSTFHPSL, native C-terminus FVEPIPE
T1 sequence (Q6JD73 21-554 I411F/R442K): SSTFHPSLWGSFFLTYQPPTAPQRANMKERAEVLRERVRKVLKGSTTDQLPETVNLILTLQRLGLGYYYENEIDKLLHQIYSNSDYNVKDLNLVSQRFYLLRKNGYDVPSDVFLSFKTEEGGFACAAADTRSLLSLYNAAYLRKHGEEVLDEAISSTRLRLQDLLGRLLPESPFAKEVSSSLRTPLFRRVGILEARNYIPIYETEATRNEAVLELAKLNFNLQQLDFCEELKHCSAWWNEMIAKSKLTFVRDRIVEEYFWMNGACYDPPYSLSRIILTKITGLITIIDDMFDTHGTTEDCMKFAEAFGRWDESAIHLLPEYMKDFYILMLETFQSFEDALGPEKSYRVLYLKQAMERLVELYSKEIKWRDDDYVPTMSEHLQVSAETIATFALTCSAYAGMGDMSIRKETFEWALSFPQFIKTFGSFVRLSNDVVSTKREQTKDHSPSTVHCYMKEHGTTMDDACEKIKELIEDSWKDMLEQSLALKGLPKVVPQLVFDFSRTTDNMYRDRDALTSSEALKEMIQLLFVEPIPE

T2: TPS4 (tps4-B73) (Zea mays, UniProt Q6JD73)
T2 construct: expressed in E. coli BL21(DE3) from pHIS8-3, N-terminal His8 tag kept, Ni-NTA purified; forward primer starts the ORF at codons for SSTFHPSL, native C-terminus FVEPIPE
T2 sequence (Q6JD73 21-554): T1 sequence (Q6JD73 21-554 I411F/R442K) with F391I, K422R

T3: TPS10 (tps10-B73) (Zea mays, UniProt Q2NM15)
T3 construct: expressed in E. coli BL21(DE3) from pHIS8-3 (NcoI/EcoRI), His tag kept, Ni-NTA purified; printed forward primer codes for MPPPS at the N-terminus
T3 sequence (Q2NM15 1-533): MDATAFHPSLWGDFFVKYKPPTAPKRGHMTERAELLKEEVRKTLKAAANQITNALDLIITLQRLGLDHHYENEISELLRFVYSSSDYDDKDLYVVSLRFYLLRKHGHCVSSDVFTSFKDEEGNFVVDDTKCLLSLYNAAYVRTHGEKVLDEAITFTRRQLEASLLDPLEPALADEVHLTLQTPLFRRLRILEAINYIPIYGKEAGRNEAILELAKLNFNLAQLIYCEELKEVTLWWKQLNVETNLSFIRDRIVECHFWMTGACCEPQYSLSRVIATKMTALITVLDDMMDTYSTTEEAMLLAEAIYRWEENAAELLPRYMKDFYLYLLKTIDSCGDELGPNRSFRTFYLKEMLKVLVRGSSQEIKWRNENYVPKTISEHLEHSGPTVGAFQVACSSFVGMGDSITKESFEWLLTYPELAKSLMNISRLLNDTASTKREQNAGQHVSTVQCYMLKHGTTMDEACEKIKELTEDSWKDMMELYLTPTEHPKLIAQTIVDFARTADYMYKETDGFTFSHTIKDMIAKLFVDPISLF

B1: TPS4 (tps4-B73) (Zea mays) (protein)
chain: T1 sequence (Q6JD73 21-554 I411F/R442K) with F391I, K422R
notes: expressed in E. coli BL21(DE3) from pHIS8-3, N-terminal His8 tag kept, Ni-NTA purified; forward primer starts the ORF at codons for SSTFHPSL, native C-terminus FVEPIPE

How the values were obtained:
[1] = molecular target: T1, TPS4 (tps4-B73); test: [[…]-3H]FPP turnover, pentane-extracted products, scintillation counting; type: biochemical; settings: 10 mM MgCl2, 10 mM Mopso pH 7.0, 1 mM DTT, 10% glycerol, 30 °C; labelled compound; read-out: TPS4-c17 R442K + I411F
[2] = molecular target: T2, TPS4 (tps4-B73); test: as above; type: biochemical; settings: 10 mM MgCl2, 10 mM Mopso pH 7.0, 1 mM DTT, 10% glycerol, 30 °C; labelled compound; read-out: TPS4-c17
[3] = molecular target: T3, TPS10 (tps10-B73); test: as above; type: biochemical; settings: 10 mM MgCl2, 10 mM Mopso pH 7.0, 1 mM DTT, 10% glycerol, 30 °C; labelled compound
[4] = substrate: CC(C)=CCC/C(C)=C/CC/C(C)=C/CO[P@@](=O)(O)OP(=O)(O)O; test: purified protein; type: biochemical, Zea mays; settings: 10 mM MgCl2, 10 mM Mopso pH 7.0, 1 mM DTT, 10% glycerol, 30 °C, labelled compound

| Molecule | Km [1] | Km [2] | Km [3] | Km [4] | kcat [4] |
| --- | --- | --- | --- | --- | --- |
| CC(C)=CCC/C(C)=C/CC/C(C)=C/CO[P@@](=O)(O)OP(=O)(O)O [(E,E)-farnesyl diphosphate] | 2.3 ± 0.3 µM | 2.1 ± 0.3 µM | 3.2 ± 0.5 µM |  |  |
| B1 |  |  |  | 3.8 ± 0.5 µM | 0.0105 ± 0.0006 s⁻¹ |
